Patent US5869447A, “Cyclohexapeptides and their mixtures, a process for preparing them, and their use” (Hoechst Aktiengesellschaft, priority 1994, dated 1999)
≈ marks a conversion by molar mass, not a printed value. Square brackets hold non-standard residues; d marks the D form. Peptide text beside a SMILES is read from it. Hyp = O=C(O)[C@@H]1C[C@@H](O)CN1

Each compound was assayed on IL-4 receptor (receptor/Fc fusion protein) (assay: Specific inhibition of IL-4 binding in cell-free binding assays (IC50 table)). Settings: cell-free IL-4 binding assay, biotinylated ligand 100 ng/ml, PBSA with 5% DMSO; table does not say whether huIL-4 or muIL-4 test.
From the text: Specific inhibition of IL-4 Binding in Cell-free Binding Assays.
EP 488 170 A1, which is incorporated herein by reference, discloses cell-free binding tests. For carrying them out, recombinant chimeric proteins were used which comprise the extracellular region of what are normally membrane-located receptors on to whose carboxyl terminus has been fused the Fc region of a heavy immunoglobulin chain composed of hinge, CH2 and CH3 domains. These so-called receptor/Fc fusion proteins can be bound, while retaining the specific receptor binding activity, to solid phases which have previously been coated, for example, with monoclonal antibodies directed against the Fc moiety. For this example, Nunc® type B ELISA plates were used as the solid phase. Receptor/Fc fusion proteins, dissolved in PBS containing 10 mg/ml BSA (PBSA), were bonded to these pre-treated plates (huIL-4R/Fc: 500 ng/ml; muIL-4R/Fc: 250 ng/ml; huIL-lR/Fc: 125 ng/ml; at room temperature for 1 h). […] The plates were incubated at room temperature for 1 h in PBSA containing 5% DMSO. After having been washed, the plates were incubated at room temperature for 20 min with streptavidin/peroxidase (Amersham, 1:2000 in PBSA). The bound peroxidase was detected after the plates had been washed repeatedly in a solution of tetramethylbenzidine substrate (Behringwerke). The extinction at 450 nm, which directly reflects the quantity of the biotinylated ligand bound to the receptor, was measured after the plates had been incubated for 30 min. For FIGS. 1-3, the measured extinction signal was plotted against the concentration of the competing agent with the 100% value being the extinction which was measured in the absence of any competing agent.
An IC50 of 8.3 µg/mL (≈ 12.4 µM) was found for `CC(C)[C@@H]1NC(=O)[C@H](Cc2ccc(O)cc2)NC(=O)[C@@H](C)NC(=O)[C@H](C(C)C)NC(=O)[C@H](Cc2ccc(O)cc2)NC(=O)[C@H](C)NC1=O` [cyclo(Tyr--Val--Ala--Tyr--Val--(D)--Ala), cyclo(Tyr-Val-Ala-Tyr-Val-(D)-Ala)] (cyclo(AYV[dA]YV)) in this work.
An IC50 of 96.6 µg/mL (≈ 128 µM) was found for `CC(C)[C@@H]1NC(=O)[C@H](Cc2ccc(O)cc2)NC(=O)[C@@H](C)NC(=O)[C@H](C(C)C)NC(=O)[C@H](Cc2ccc(O)cc2)NC(=O)[C@H](CCCNC(=N)N)NC1=O` [cyclo(Tyr--Val--Arg--Tyr--Val--(D)--Ala), cyclo(Tyr-Val-Arg-Tyr-Val-(D)-Ala)] (cyclo(RYV[dA]YV)) in this work.
An IC50 of 17.4 µg/mL (≈ 24.5 µM) was found for `CC(C)[C@@H]1NC(=O)[C@H](Cc2ccc(O)cc2)NC(=O)[C@@H]2C[C@@H](O)CN2C(=O)[C@H](C(C)C)NC(=O)[C@H](Cc2ccc(O)cc2)NC(=O)[C@@H](C)NC1=O` [cyclo(Tyr--Val--Hyp--Tyr--Val--(D)--Ala), cyclo(Tyr-Val-Hyp-Tyr-Val-(D)-Ala)] (cyclo([Hyp]YV[dA]YV)) in this work.
An IC50 of 62.5 µg/mL (≈ 88.2 µM) was found for `CC[C@H](C)[C@@H]1NC(=O)[C@H](C(C)C)NC(=O)[C@H](Cc2ccc(O)cc2)NC(=O)[C@@H](C)NC(=O)[C@H](C(C)C)NC(=O)[C@H](Cc2ccc(O)cc2)NC1=O` [cyclo(Tyr--Val--Ile--Tyr--Val--(D)--Ala), cyclo(Tyr-Val-Ile-Tyr-Val-(D)-Ala)] (cyclo(IYV[dA]YV)) in this work.
An IC50 of 41.3 µg/mL (≈ 58.3 µM) was found for `CC(C)C[C@@H]1NC(=O)[C@H](C(C)C)NC(=O)[C@H](Cc2ccc(O)cc2)NC(=O)[C@@H](C)NC(=O)[C@H](C(C)C)NC(=O)[C@H](Cc2ccc(O)cc2)NC1=O` [cyclo(Tyr--Val--Leu--Tyr--Val--(D)--Ala), cyclo(Tyr-Val-Leu-Tyr-Val-(D)-Ala)] (cyclo(LYV[dA]YV)) in this work.
An IC50 of 92.0 µg/mL (≈ 132 µM) was found for `CC(C)[C@@H]1NC(=O)[C@H](Cc2ccc(O)cc2)NC(=O)[C@@H](C)NC(=O)[C@H](C(C)C)NC(=O)[C@H](Cc2ccc(O)cc2)NC(=O)[C@H]([C@@H](C)O)NC1=O` [cyclo(Tyr--Val--Thr--Tyr--Val--(D)--Ala), cyclo(Tyr-Val-Thr-Tyr-Val-(D)-Ala)] (cyclo(TYV[dA]YV)) in this work.
An IC50 of 16.7 µg/mL (≈ 25 µM) was found for `CC(C)[C@@H]1NC(=O)[C@H](C)NC(=O)[C@H](Cc2ccc(O)cc2)NC(=O)[C@H](C(C)C)NC(=O)[C@@H](C)NC(=O)[C@H](Cc2ccc(O)cc2)NC1=O` [cyclo(Val--Tyr--Ala--Val--Tyr--(D)--Ala), cyclo(Val-Tyr-Ala-Val-Tyr-(D)-Ala)] (cyclo(AVY[dA]VY)) in this work.
